From PubChem BioAssay (NCI)
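Step 1: Grow cells in 96-well plates. Step 2: Expose to compound for 48 hours at 5 concentrations. Step 3: Interpolate endpoints linearly; if unreached, use highest concentration. The concentration for full growth arrest is given as TGI.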

How the values were obtained:
Assay in all cases: NCI-60 cell line screen, 48 h
SF-539 CNS = test system: SF-539 CNS
786-0 renal = test system: 786-0 renal
HT29 colon = test system: HT29 colon
NCI-H23 lung = test system: NCI-H23 lung
ACHN renal = test system: ACHN renal
SK-MEL-5 melanoma = test system: SK-MEL-5 melanoma
M14 melanoma = test system: M14 melanoma
A498 renal = test system: A498 renal
HOP-92 NSCLC = test system: HOP-92 NSCLC
K-562 leukemia = test system: K-562 leukemia
SN12C renal = test system: SN12C renal
LOX IMVI melanoma = test system: LOX IMVI melanoma
KM12 colon = test system: KM12 colon
MCF7 breast = test system: MCF7 breast

| SMILES | TGI (SF-539 CNS) [µM] | TGI (786-0 renal) [µM] | TGI (HT29 colon) [µM] | TGI (NCI-H23 lung) [µM] | TGI (ACHN renal) [µM] | TGI (SK-MEL-5 melanoma) [µM] | TGI (M14 melanoma) [µM] | TGI (A498 renal) [µM] | TGI (HOP-92 NSCLC) [µM] | TGI (K-562 leukemia) [µM] | TGI (SN12C renal) [µM] | TGI (LOX IMVI melanoma) [µM] | TGI (KM12 colon) [µM] | TGI (MCF7 breast) [µM] |
| --- | --- | --- | --- | --- | --- | --- | --- | --- | --- | --- | --- | --- | --- | --- |
| COC(=O)C1C=CCON2CCc3c(n(S(=O)(=O)c4ccccc4)c4ccccc34)C12 (centres undefined) | > 16.2 | > 100 | > 100 | > 100 | > 100 | > 58.4 | > 100 | > 100 | > 100 | > 60.9 | > 100 | > 60.9 | > 55.6 |  |
| NC(Cc1ccc(B(O)O)cc1)C(=O)NC(CO)CO (centres undefined) | > 100 | > 100 | > 100 | > 100 | > 100 | > 100 | > 100 |  |  | > 100 | > 100 | > 100 | > 100 |  |
| Cc1csc(NNC(=O)Nc2ccccc2)n1 | > 100 | > 100 | > 100 | > 100 | > 100 | > 100 | > 100 | > 100 |  | > 100 | > 100 | > 100 | > 100 | > 100 |
| CC1(C)OC(=O)C(Cc2ccccc2)(Cc2ccccc2)C(=O)O1 | > 100 | > 100 | > 100 | > 100 | > 100 | > 100 | > 100 |  |  | > 100 | > 100 | > 100 | > 100 | > 100 |
| c1ccc([P+](c2ccccc2)(c2ccccc2)C2c3ccccc3-c3ccccc32)cc1 | 6.98 | 10.9 | 4.04 | 5.38 | 7.79 | 3.82 | 11.3 | 4.51 |  | > 100 | 7.29 | 4.96 |  | 10 |
| O=P(O)(CN1CCN(CP(=O)(O)c2ccccc2)CCN(CP(=O)(O)c2ccccc2)CC1)c1ccccc1 | > 100 | > 100 | > 100 | > 100 | > 100 | > 100 |  | 88.6 |  | > 100 |  | > 100 | > 100 | > 100 |
| CC(C)[C@@H](C)[C@@]1(C)C[C@@H]1[C@@H](C)[C@H]1CC[C@@H]([C@@H]2CC=C3C[C@@H](O)CC[C@]3(C)C2=O)[C@]1(C)CCO | 25.3 | 17.2 | 7.39 | 27.2 | 25 | 26.4 |  | 28.7 |  | 18 | 25.5 | 15.4 | 13 | 22.8 |
| O=c1c2ccccc2[nH]c2c(Cl)cc(Cl)c(N3CCCCC3)c12 | 46.6 | > 10 | 32.6 | 76.5 | 65.7 | > 100 | 88.9 | 81 |  | > 10 | 55.8 | > 100 | 54.9 | > 100 |
| S=C(N1CCN(c2ccccc2)CC1)N1CCN(c2ccccc2)CC1 |  | > 100 | > 100 | > 100 | > 100 | > 100 | > 100 | > 100 |  | > 100 | > 100 |  | > 100 | > 100 |
| CCOC(=O)C(=O)NC12CC3CC(CC(C3)C1)C2 | > 100 |  | > 100 | > 100 | > 100 | > 100 | > 100 | > 100 | > 100 | > 100 | > 100 | > 100 | > 100 |  |
| CNC(=O)NS(=O)(=O)c1ccc(C)cc1 | > 100 | > 100 | > 100 | > 100 | > 100 | > 100 | > 100 |  | > 100 | > 100 | > 100 | > 100 | > 100 | > 100 |
| COC1C(O)C(C)OC(OC2CCC3(C)C(CCC4C3C(O)CC3(C)C(C5=CC(=O)OC5)CCC43O)C2)C1O (centres undefined) | 0.22 |  | 2.23 | 0.308 | 0.684 | 0.501 | 1.02 | 0.703 | 3.33 | 5.28 | 0.426 | 0.775 | 6.12 |  |
| CCCCC(=O)Nc1ccc2c(C)cc(-c3ccc(-c4cc(-c5ccc(C)cc5)cc(-c5ccc(-c6cc(C)c7ccc(NC(=O)CCCC)nc7n6)cc5)n4)cc3)nc2n1 |  | > 100 |  | > 100 | > 100 | > 100 | > 100 | > 100 | > 100 | > 100 | > 100 |  | > 100 | > 100 |
| CCCN(CCC)C1=Nc2ccccc2-n2cnnc2C1 | > 100 | > 100 | > 100 | > 100 | > 100 | > 100 | > 100 |  |  | > 100 | > 100 | > 100 | > 100 |  |
| O=C1/C(=C/c2ccc(Cl)cc2)CSC/C1=C\c1ccc(Cl)cc1 | 9.26 | 9.73 | 4.81 | 11.8 | 12.6 | 10.6 | 3.92 |  | 43.2 | 10.1 | 9.52 | 5.3 | 4.47 | 13.1 |
| C=C1Cc2cc(OC)c(OC)c(OC)c2-c2ccc(SC)c(=O)cc21 | < 0.01 | 1.8 | < 0.01 | 2.11 | 6.2 | 13.3 |  | 0.421 | 3.7 | > 34.8 | 1.6 | 0.343 | < 0.01 |  |
| COc1cc(C=O)cc(O)c1O | > 100 | > 100 | > 100 | > 100 | > 100 |  | > 100 |  |  | > 100 | > 100 | > 100 | > 100 |  |
| Cc1cc2nc(N3C(=O)/C(=C/c4ccc(N(C)C)cc4)N=C3c3ccccc3)sc2cc1C | 53.4 | 49.9 | 44.2 |  | 62.4 | 44.4 | 73.1 |  | 53 | > 100 | 57.8 | > 100 | > 100 | 21.3 |
